For one compound, IC50 results are on record in patent publication US8492568B2, “Chromane derivatives as TRPV3 modulators” (Glenmark Pharamceuticals S.A., priority 2008, dated 2013).

The assay deals with Human TRPV3 (Homo sapiens (Human), UniProt Q8NET8). Put plainly: Screening for TRPV3 antagonist using the 45Calcium uptake assay. The class given is cell-based. As to conditions: 2-APB (500 μM) induced 45Ca uptake, human TRPV3 expressing CHO cells. The source says: The illustrative examples of the present invention are screened for TRPV3 activity according to a modified procedure described in Tóth, A., Kedei, N., Wang, Y. and Blumberg, P. M. Life Sciences (2003), 73, 487-498. The screening of the compounds can be carried out by other methods and procedures known to a person skilled in the art. Such screening methods may be found in (a) Hu, H.-Z. et al. J. Biol. Chem. (2004), 279, 35741-35747; (b) Smith, G. D. et al. Nature (2002), 418, 186-190; (c) Peier, A. M. et al. Science (2002), 296, 2046-2049.
Sequence of Human TRPV3 (Q8NET8 whole entry): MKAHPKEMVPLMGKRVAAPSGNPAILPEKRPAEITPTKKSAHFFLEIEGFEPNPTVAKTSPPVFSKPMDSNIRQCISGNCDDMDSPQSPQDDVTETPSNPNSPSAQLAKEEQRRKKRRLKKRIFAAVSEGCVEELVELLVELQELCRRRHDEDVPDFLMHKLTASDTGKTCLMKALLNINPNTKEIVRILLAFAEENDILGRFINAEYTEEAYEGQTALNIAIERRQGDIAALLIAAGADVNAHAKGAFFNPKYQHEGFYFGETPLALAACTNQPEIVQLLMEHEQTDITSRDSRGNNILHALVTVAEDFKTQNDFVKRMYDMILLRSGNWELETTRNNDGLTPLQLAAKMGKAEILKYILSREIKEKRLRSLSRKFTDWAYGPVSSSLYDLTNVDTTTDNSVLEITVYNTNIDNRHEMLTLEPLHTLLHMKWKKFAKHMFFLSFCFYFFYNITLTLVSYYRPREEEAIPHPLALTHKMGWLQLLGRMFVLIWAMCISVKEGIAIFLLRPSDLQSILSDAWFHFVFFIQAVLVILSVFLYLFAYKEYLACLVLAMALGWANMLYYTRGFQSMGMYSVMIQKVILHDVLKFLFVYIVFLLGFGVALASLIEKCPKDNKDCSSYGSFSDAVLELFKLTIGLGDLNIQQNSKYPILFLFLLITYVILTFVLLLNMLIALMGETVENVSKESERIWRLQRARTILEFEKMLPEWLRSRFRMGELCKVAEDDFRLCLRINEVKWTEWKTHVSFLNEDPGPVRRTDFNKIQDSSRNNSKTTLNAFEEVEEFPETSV
Screening for TRPV3 Antagonist Using the ^45Calcium Uptake Assay:
The inhibition of TRPV3 receptor activation was followed as inhibition of 2-aminoethoxydiphenylborate (2-APB) induced cellular uptake of radioactive calcium. Test compounds were dissolved in dimethyl sulfoxide (DMSO) to prepare 20 mM stock solution and then diluted using plain medium with DMEM/F-12 containing 1.8 mM CaCl2 to get desired concentration. Final concentration of DMSO in the reaction was 0.5% (v/v). Human TRPV3 expressing CHO cells were grown in DMEM/F-12 medium with 10% FBS, 1% penicillin-streptomycin solution, 400 μg/ml of G-418. […] Radioactivity in the lysate was measured in Packardt Top count after addition of liquid scintillant. […] IC50 value was calculated from concentration response curve by nonlinear regression analysis using GraphPad PRISM software.

Each structure is given as a SMILES string.

`COc1cccc(CNC(=O)CC2CC3(CCC3)Oc3ccc(Cl)cc32)c1OC1CCCC1` (stereo not shown) [Example 2, 2-(6-Chloro-3,4-dihydrospiro[chromene-2,1′-cyclobutan]-4-yl)-N-(2-cyclopentyloxy-3-methoxybenzyl)acetamide]: the IC50 came out at 725.3 n.M.
